Patent US20240358693A1, “METHODS OF TREATING PAIN” (Aisa Pharma, Inc., priority 2023, published 2024)

What was measured:
participants with SSc-RP [1] = assay: Pain score recorded during weekly RP attacks (11-point Likert scale); type: in vivo, human; settings: for Average Pain Score [Mean (SD)]: on treatment, N = 24
Excerpt: The absolute change in average pain score (11-point Likert scale) of weekly RP attacks from baseline to the end of each Dosing Period will be a secondary outcome variable. The sponsor-developed participant-informed diary will be used to record data. The average pain score of weekly RP attacks is defined as the total pain scores divided by total number of RP attacks within the last 7 days of each dosing period. Average of the last 7 days of screening assessments will be used as baseline for the analysis of all periods. The variable will be calculated similar to frequency data as before.

[2] = In vitro equilibrium dialysis (RED) protein binding, rat plasma; type: in vitro ADME; settings: male, Sprague-Dawley, pH 7.4
Procedure: (§1) Cilnidipine was tested by PsychoGenics using standard methodology in 96-well RED (Rapid Equilibrium Dialysis) plates from Thermo Fisher Scientific. Male Sprague-Dawley plasma and brain were obtained from BioIVT to provide the required protein matrix. Plasma was used undiluted, and brain homogenate was diluted 3 to 1 with PBS, pH 7.4. The protein matrix was spiked with the test compound dissolved in DMSO to achieve a 10 μM solution. Three chambers were used to allow for triplicate measures with a final DMSO concentration of <1% in each. The dialysate compartments of the 96-well dialysis chamber was loaded with PBS, pH 7.4 and the sample side was loaded with equal volume of the spiked protein matrix. The dialysis plate was then sealed and incubated at 37° C. for 4 h. After the incubation, samples were taken from each compartment. The buffer side was diluted with the appropriate matrix (plasma or brain homogenate) and the protein matrix side diluted with phosphate buffer. Resultant samples were then crashed in acetonitrile, centrifuged and the supernatant mixed with an aqueous solution providing samples for UPLC-MS/MS analysis. […] This control sample served as the basis for the determination of recovery. […] Samples were analyzed by UPLC-MS/MS using […] (MRM). The UPLC conditions consisted of a binary LC pump with autosampler, an InertSustain column (C18 column, 2.1×50 mm), utilizing gradient elution. The peak areas of the test compound in the buffer and test samples were used to calculate percent binding and recovery according to the following formulas: […]
(§2) The recovery determination serves as an indicator of reliability of the calculated protein binding value.
(§3) The characterization of protein binding is defined using the following ranges:
(§4) • Low 0 to 50% • Moderate 50 to 90% • High 90 to 99% • Very High>99%

rat plasma proteins = assay: as above; type: in vitro ADME
Procedure: as §1, §2, §3, §4

[3] = In vitro equilibrium dialysis (RED) protein binding, rat brain homogenate; type: in vitro ADME; settings: male, Sprague-Dawley, rat, pH 7.4
Procedure: as §1, §2, §3, §4

[4] = system: rat brain homogenate proteins; assay: as above; type: in vitro ADME
Procedure: as §1, §2, §3, §4

participants with SSc-RP [5] = assay: Summary of data: dose response / overall response, Phase 2a study Part A; type: in vivo, human; settings: 20 mg dose group
Excerpt: Table S provides a summary of data:

[6] = 10 mg Cilnidipine, Healthy Volunteers, single oral dose; cited from earlier work
Nav 1.7 sodium channel = Nav 1.7 sodium channel (Homo sapiens, UniProt Q15858); settings: 20 mg dose of cilnidipine; cited from earlier work
plasma protein = settings: oral; cited from earlier work
[7] = oral dosing; cited from earlier work
[8] = male, Sprague-Dawley, plasma, 4 h, 10 μM, pH 7.4

Chain of Nav 1.7 sodium channel (Q15858 whole entry): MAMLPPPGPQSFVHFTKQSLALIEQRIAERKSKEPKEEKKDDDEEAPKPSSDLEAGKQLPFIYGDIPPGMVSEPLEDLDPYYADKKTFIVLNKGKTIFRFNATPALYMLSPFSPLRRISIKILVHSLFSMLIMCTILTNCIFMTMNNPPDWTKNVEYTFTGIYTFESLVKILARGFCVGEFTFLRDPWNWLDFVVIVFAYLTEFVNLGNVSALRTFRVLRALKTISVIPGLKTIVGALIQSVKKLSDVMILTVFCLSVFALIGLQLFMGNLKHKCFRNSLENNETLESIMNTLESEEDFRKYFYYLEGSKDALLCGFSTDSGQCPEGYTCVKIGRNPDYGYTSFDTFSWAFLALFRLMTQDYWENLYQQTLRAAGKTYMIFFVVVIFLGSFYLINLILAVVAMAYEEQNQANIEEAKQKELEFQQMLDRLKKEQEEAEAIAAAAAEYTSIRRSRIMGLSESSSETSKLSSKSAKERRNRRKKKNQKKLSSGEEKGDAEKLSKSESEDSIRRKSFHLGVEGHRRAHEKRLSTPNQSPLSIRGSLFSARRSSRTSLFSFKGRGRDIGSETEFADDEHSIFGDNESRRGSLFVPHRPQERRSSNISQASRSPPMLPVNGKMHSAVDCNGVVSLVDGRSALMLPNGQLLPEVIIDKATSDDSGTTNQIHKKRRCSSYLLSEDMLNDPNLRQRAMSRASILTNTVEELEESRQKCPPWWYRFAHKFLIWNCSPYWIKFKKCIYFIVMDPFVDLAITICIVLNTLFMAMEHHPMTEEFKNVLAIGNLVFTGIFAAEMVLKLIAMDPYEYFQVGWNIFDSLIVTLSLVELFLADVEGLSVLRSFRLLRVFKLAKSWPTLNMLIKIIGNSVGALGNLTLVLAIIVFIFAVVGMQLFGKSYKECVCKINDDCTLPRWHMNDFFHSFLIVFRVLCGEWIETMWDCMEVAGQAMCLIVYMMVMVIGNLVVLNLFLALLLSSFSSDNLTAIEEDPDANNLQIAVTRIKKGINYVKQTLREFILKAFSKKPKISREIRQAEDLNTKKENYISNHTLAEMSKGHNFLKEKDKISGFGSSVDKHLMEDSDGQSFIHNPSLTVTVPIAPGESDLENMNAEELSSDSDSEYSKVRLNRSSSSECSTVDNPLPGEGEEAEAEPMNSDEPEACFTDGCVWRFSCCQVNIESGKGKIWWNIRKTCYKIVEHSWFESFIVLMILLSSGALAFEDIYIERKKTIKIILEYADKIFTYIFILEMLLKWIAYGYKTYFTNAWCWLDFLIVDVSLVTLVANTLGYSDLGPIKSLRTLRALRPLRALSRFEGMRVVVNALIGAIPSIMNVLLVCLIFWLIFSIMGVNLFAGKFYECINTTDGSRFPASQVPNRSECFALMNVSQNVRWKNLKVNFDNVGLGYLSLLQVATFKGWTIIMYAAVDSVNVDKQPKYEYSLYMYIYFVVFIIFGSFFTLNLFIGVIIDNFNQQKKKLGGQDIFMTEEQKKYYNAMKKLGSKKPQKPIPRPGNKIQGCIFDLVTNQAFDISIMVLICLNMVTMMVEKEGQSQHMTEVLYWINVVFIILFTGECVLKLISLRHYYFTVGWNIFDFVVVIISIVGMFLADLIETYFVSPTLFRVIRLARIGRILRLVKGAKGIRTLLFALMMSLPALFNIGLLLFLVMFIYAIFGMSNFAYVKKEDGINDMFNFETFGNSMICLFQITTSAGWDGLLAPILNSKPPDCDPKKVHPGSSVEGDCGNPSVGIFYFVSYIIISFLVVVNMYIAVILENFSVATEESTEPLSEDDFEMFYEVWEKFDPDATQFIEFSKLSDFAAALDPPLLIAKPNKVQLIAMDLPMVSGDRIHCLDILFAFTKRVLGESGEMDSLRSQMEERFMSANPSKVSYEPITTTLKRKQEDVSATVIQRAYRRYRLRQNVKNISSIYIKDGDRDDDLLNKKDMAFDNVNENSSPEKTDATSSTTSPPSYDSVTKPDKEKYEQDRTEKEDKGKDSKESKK

COCCOC(=O)C1=C(C)NC(C)=C(C(=O)OC/C=C/c2ccccc2)C1c1cccc([N+](=O)[O-])c1 (stereo not shown) [Cilnidipine, cilnidipine]
Average Pain Score, Change From Baseline, Mean (participants with SSc-RP [1]; Cilnidipine 10 mg (n = 4)): 0.47 | Average Pain Score, Percent Change from Baseline, Mean (participants with SSc-RP [1]; Cilnidipine 10 mg (n = 4)): 11.76% | Average Pain Score [Mean (SD)] (participants with SSc-RP [1]; Cilnidipine 10 mg (n = 4)): 2.82 (2.268) | Average Pain Score [Mean (SD)] (participants with SSc-RP [1]; Cilnidipine 20 mg (n = 3)): 1.28 (1.993) | Average Pain Score, Change From Baseline, Mean (participants with SSc-RP [1]; Cilnidipine (20 mg) (n = 3)): −0.47 | Average Pain Score, Percent Change from Baseline, Mean (participants with SSc-RP [1]; Cilnidipine (20 mg) (n = 3)): −26.89% | Average Raynaud's Pain (participants with SSc-RP [1]; Cilnidipine (20 mg) (n = 3)): 12% | Mean pain level at baseline (participants with SSc-RP [1]; Cilnidipine (20 mg) (n = 3)): 2.3 | Mean percent change in pain score from baseline (participants with SSc-RP [1]; Cilnidipine (20 mg) (n = 3)): −11.8% | Average Raynaud's Pain (participants with SSc-RP [1]; Pooled Cilnidipine (n = 7)): −27% | recovery at 4 h, 10 μM [2]: 92.9 ± 4.69% | binding to plasma (rat plasma proteins; male, Sprague-Dawley, 4 h, 10 μM, pH 7.4): 100% | Protein Binding (%) (rat plasma proteins; [8]): 100.0 ± 0.00% | Unbound (%) (rat plasma proteins; [8]): 0.0 ± 0.00% | stability in plasma (rat plasma proteins; plasma): stable | fraction unbound at 4 h, 10 μM ([3]; brain homogenate): 0.008 | recovery at 4 h, 10 μM [3]: 93.7 ± 3.25% | stability in brain [4]: stable | binding to brain ([4]; male, Sprague-Dawley, rat, 4 h, 10 μM, pH 7.4): 99.2% | Unbound (%) ([4]; male, Sprague-Dawley, rat, brain homogenate, 4 h, 10 μM, pH 7.4): 0.8 ± 0.03% | Efficacy seen: overall response (participants with SSc-RP [5]): shows best overall | CL/F, Mean [6]: 304.7 L/h | inhibition of Nav 1.7 compared to an 1800 mg dose of gabapentin (Nav 1.7 sodium channel): > 6 fold | protein bound (protein binding in plasma) when given orally (plasma protein): 98% | time to achieve maximal plasma concentrations (Tmax) [7]: ≤ 2 h

CN1CC(=O)N2[C@H](c3ccc4c(c3)OCO4)c3[nH]c4ccccc4c3C[C@@H]2C1=O [Tadalafil, tadalafil]
Average Pain Score, Change From Baseline, Mean (participants with SSc-RP [1]; Tadalafil 5 mg (n = 4)): 0.37 | Average Pain Score, Percent Change from Baseline, Mean (participants with SSc-RP [1]; Tadalafil 5 mg (n = 4)): 17.20% | Average Pain Score [Mean (SD)] (participants with SSc-RP [1]; Tadalafil 5 mg (n = 4)): 5.84 (4.768)
